Here are results for seven compounds from patent US20210338699A1 (priority 2018, published 2021).

Where two headings read alike, the source gives them in different places.

For data set [1], the system named is AML mice. An excerpt: Three different sources of donor cells will be utilized: 1) WT LSK cells; 2) Tet2^−/−FLT3^ITD/+ LSK cells; and 3) Dnmt3a^−/−FLT3^ITD/+ LSK cells. Lethally irradiated CD45.1^+ (BoyJ) recipient mice of the above described 5 genotypes will be transplanted with CD45.2^+WT, Tet2^−/−FLT3^ITD/+ or Dnmt3a^−/−FLT3^TID/+ leukemic cells along with CD45.1^+ normal cells in 1:1 ratio pooled from 2-3 mice of either gender at 4 months of age. 2 months posttransplant, the development of AML in these mice will be assessed by analysing peripheral blood. Mice will be randomly assigned into two groups: 1) vehicle; and 2) intraperitoneal injection (IP) of DOX 8 mg/kg/week for 3 weeks. This treatment is based on the previously described approach. […] Alternatively, mice will be subjected to 5 IP injections of DOX (5 mg/Kg) with one-week intervals for a cumulative dose of 25 mg/kg over a period of 5 weeks. […] Relapse of these mice will be monitored closely and DOX will be re-administered and then be compared for CTX.

The test system of data set [2] is cancer patients including AML patients. The following applies: within 9 years of DOX treatment; cited from earlier work.
Data set [3] relates to WT and ROCK1^−/− mice. The data set is described as follows: Serial doxorubicin administration, DOX-induced CTX in WT and ROCK1−/− mice. The procedure:
FIG. 1A. Schematic diagram representing serial doxorubicin administration protocol. WT and ROCK1^−/− mice received three serial injections weekly of normal saline (NS) or doxorubicin (DOX) (8 mg/kg). […]
The generation of ROCK1 deficient mice have been previously reported. […] To assess if a deficiency of ROCK1 protects the mice from DOX induced CTX, control (WT) and ROCK1^−/− mice were injected with 8 mg/kg of DOX or normal saline (NS) once weekly for 3 consecutive weeks, for a cumulative dose of 24 mg/kg (FIG. 1A). This treatment is based on the previously described approach, which causes progressive cardiac dysfunction within three weeks after the initial injection, a scenario that mimics early-onset of DOX-induced CTX in humans.
To elucidate the role of ROCK1 in DOX induced CTX, ROCK1^−/− mice were treated with DOX in parallel to the WT mice.
During autophagy, the cytosolic form of microtubule-associated protein 1 light chain 3 (LC3-I) is conjugated to phosphatidylethanolamine to form LC3-II, which is recruited to autophagosomal membranes.

The subject of data set [4] is MHC-Cre/ROCK1^fl/fl and ROCK1^fl/fl mice. The data set is described as follows: DOX-induced CTX in cardiomyocyte-specific ROCK1 knockout mice. It counts as in vivo. The following applies: three weekly injections 8 mg/kg, day 21. How it is done:
FIG. 7A. Graph illustrating the percent fractional shortening (FS) of cardiomyocyte-specific ROCK1 knockout mice (MHC-Cre/ROCKfl/fl) and ROCK1fl/fl mice (8-9 weeks old) after receiving three serial injections weekly of NS or DOX (8 mg/kg). Cardiac function was measured by echocardiography analysis on day 21 after the initial injection.
FIG. 7B. Graph illustrating total TUNEL positive nuclei per 10^5 total nuclei in ventricular myocardium from MHC-Cre/ROCK^fl/fl and ROCK1^fl/fl mice hearts on day 21. N=4-6 in each group.
FIG. 7C. Representative heart sections stained with picrosirius red/Fast green illustrating the collagen deposition in ventricular myocardium of MHC-Cre/ROCK^fl/fl and ROCK1^fl/fl mice hearts on day 21. N=4-6 in each group.
To determine if ROCK1 in cardiomyocytes has a role in DOX-induced CTX, cardiomyocyte-specific ROCK1 knockout mice were generated. In myosin heavy chain (MHC)-Cre/ROCK1^fl/fl mice, the ROCK1 protein is truncated only in cardiomyocytes from residue 137 to the end of the protein (FIGS. 6A, 6B). Similar to ROCK1^−/− mice in which the ROCK1 protein is also truncated from residue 180 to the end of the protein in all cells, the conditional targeting approach results in the removal of a large portion of the kinase domain and amino acids from the coiled-coil and the PH domains. […]

Data set [5] concerns cells expressing BCR-ABL. The data set is described as follows: Proliferation by [3H] thymidine incorporation, BCR-ABL cells. It counts as cell-based. The following applies: absence of growth factors, 48 hours. The procedure:
(§1) FIG. 9A. […] After 48 hours, proliferation was evaluated by [^3H] thymidine incorporation.
FIG. 12A. Graph illustrating the effect of ROCK inhibitor (H-1152) alone or in combination with imatinib on proliferation of myeloid cells expressing BCR-ABL.
(§2) In order to illustrate the imatinib resistance, very high dose of imatinib were used in these cells.
Referring now to FIG. 11, primary CML patient derived cells were examined and a human cell line bearing BCR-ABL (K562) was used as a positive control.
(Dividing cells build labelled thymidine or BrdU into new DNA.)

For data set [6], the system named is cells expressing FLT3-ITD (FLT3N51). The data set is described as follows: Proliferation by [3H] thymidine incorporation, FLT3-ITD cells. Format: cell-based. As to conditions: absence of growth factors, 48 hours. The procedure: as §1, §2
Data set [7] has as its system leukemic mice. The data set is described as follows: Survival of leukemic mice treated with ROCK inhibitors. It counts as in vivo. An excerpt: Increased ROCK activity is associated with cardiovascular disease (CVD).
Data set [8] concerns ROCK. The following applies: cited from earlier work.
Data set [9] has as its system blood vessel permeability. The following applies: mouse, in vivo; cited from earlier work.
Data set [10] relates to fibroblasts from WT and ROCK1^−/− mice. The data set is described as follows: Ponatinib treatment of WT and ROCK1−/− fibroblasts. It counts as cell-based.

As to `COc1cccc2c1C(=O)c1c(O)c3c(c(O)c1C2=O)C[C@@](O)(C(=O)CO)C[C@@H]3O[C@H]1C[C@H](N)[C@H](O)[C@H](C)O1` [DOX, doxorubicin], the AML response entry in data set [1] (IP 8 mg/kg/week for 3 weeks) is listed as “complete remission of AML”. The CTX result in data set [1] (mouse, in vivo, ip, 8 mg/kg) is “severe CTX including dysfunction”. Also, in data set [2], the “patients with clinical or sub-clinical manifestation of heart failure” value is listed as 6-18%. Moreover, the mortality rate in data set [3] (ROCK1 deficient mice, at 3 months) was 55%. In addition, the mortality rate in [3] (ROCK1 deficient mice, at 6 months) was 70%. The mortality rate entry in data set [3] (ROCK1−/− mice, over 6 weeks after initial DOX injection) is listed as “about 10%”. Besides, the “death of all treated mice” value in [3] (WT mice) is given as “died within 3 months”. Besides, the mortality rate entry in [3] (WT mice, over 6 weeks after initial DOX injection) is “about 70%”. Moreover, in data set [3] (mouse, in vivo), the Bax levels result is recorded as “increased”, the “autophagosomes by transmission electron microscopy” value is reported as “more accumulation of autophagosomes”, the body weight result was “significant impact” and the cardiac fibrosis entry is “increased”. Further, in data set [3] (mouse, in vivo), the cardiac function result is reported as “preserved”; the “cardiac function (percent fractional shortening)” value is on record as “impaired”; the cardiomyocyte size result is “significant impact”; the “characteristics of DOX-induced CTX (TUNEL, Bax translocation, fibrosis)” value is listed as “effectively blocked”. Moreover, in data set [3] (mouse, in vivo), the heart weight entry is listed as “significant impact”, the “mitochondrial translocation of Bax” value was “increased” and the “number of TUNEL positive cardiac cells” value was “significantly increased”. Also, in data set [3] (mouse, in vivo, 8 mg/kg), the “DOX-induced LV dilation” value is reported as “blocked”; the “LV contractile function (LV fractional shortening, FS)” value was “reduced”; the “left ventricular (LV) dilation (LVESD, LVEDD) by echocardiogram” value was “reproducible and progressive left ventricular (LV) dilation”. In addition, the “cardiotoxic events (cardiac dysfunction, TUNEL positivity, cardiac fibrosis)” value in [4] (MHC-Cre/ROCK1fl/fl mice) is “significantly reduced”. Besides, the “cardiotoxic events (cardiac dysfunction, TUNEL positivity, cardiac fibrosis)” value in data set [4] (ROCK1fl/fl hearts) was “induced cardiac dysfunction, increased TUNEL positivity and cardiac fibrosis”.

As to `O=S(=O)(c1cccc2cnccc12)N1CCCNCC1` [Fasudil], the “constitutive growth (thymidine incorporation)” value in [5] and in [6] was “similarly repress the growth” throughout. Moreover, the “survival of leukemic mice” value in data set [7] (compared to vehicle treated) was “significant enhancement in survival”. Also, the anti-leukemic activity result in data set [7] (in vivo models of AML) is listed as “potent anti-leukemic activity”.

Regarding `[N]=O` [NO, nitric oxide], the ROCK activity entry in data set [8] (patients with CVD, exogenous NO) is recorded as “inhibits ROCK activity”.

Consider `C[C@@H](N)[C@H]1CC[C@H](C(=O)Nc2ccncc2)CC1` [Y27632], for which the “constitutive growth (thymidine incorporation)” value in [5] and in data set [6] was “similarly repress the growth” in each case.

In the case of `CC(C)c1c(C(=O)Nc2ccccc2)c(-c2ccccc2)c(-c2ccc(F)cc2)n1CC[C@@H](O)C[C@@H](O)CC(=O)O` [atorvastatin], the ROCK activity entry in data set [8] (patients with atherosclerosis) is recorded as “inhibits ROCK activity”.

On to `Cc1nc(Nc2ncc(C(=O)Nc3c(C)cccc3Cl)s2)cc(N2CCN(CCO)CC2)n1` [dasatinib], for which the “amount of Evans Blue in the small intestine” value in data set [9] is reported as “significantly increases”.

Take `Cc1ccc(C(=O)Nc2ccc(CN3CCN(C)CC3)c(C(F)(F)F)c2)cc1C#Cc1cnc2cccnn12` [ponatinib]: the cell survival entry in data set [10] (ROCK1−/− cells) is reported as “enhanced survival”. In addition, in data set [10] (ROCK1−/− cells), the “cleaved caspase 3/8 levels” value was “profound decrease”. The “ponatinib induced cell shape changes” value is reported as “not the case” in data set [10] (ROCK1−/− fibroblasts) and “significant changes” in data set [10] (WT fibroblasts, increasing doses). In addition, in [10] (WT fibroblasts), the “cleaved caspase 8/3 levels” value is “profound increase”.
